The results in this text go back to ChEMBL document CHEMBL4428032, “Furofuran Lignan Glucosides with Estrogen-Inhibitory Properties from the Bangladeshi Medicinal Plant Terminalia citrina” (2016).

The source made the active and inactive calls. The calls are words filed in the database; no cut-off is given here.

Assay [1] relates to MCF7. In words: Antiestrogenic activity in human MCF7 cells assessed as inhibition of E2-induced cell proliferation up to 10 uM after 96 hrs by alamar blue assay relative to control. The assay is classed as functional. On the technique in general: Alamar Blue is a resazurin reagent that responds to reducing activity.
Assay [2] relates to MCF7. Kind of assay: Estrogen-like activity in human MCF7 cells assessed as increase in cell proliferation after 96 hrs by alamar blue assay. It is filed as functional, cell-based.
The test system of assay [3] is T47D. Kind of assay: Estrogen-like activity in human T47D cells assessed as increase in cell proliferation after 96 hrs by alamar blue assay. The assay is classed as functional, cell-based.
In assay [4] the test system is MCF7. Kind of assay: Antiestrogenic activity in human MCF7 cells assessed as compound concentration required to decrease 100 pM E2-induced cell proliferation to equivalent levels induced by 50 pM E2 after 96 hrs by alamar blue assay. The assay is classed as functional.
Assay [5] concerns MCF7. In words: Antiestrogenic activity in human MCF7 cells assessed as compound concentration required to decrease 100 pM E2-induced cell proliferation to equivalent levels induced by 10 pM E2 after 96 hrs by alamar blue assay. The assay is classed as functional.
Assay [6] has as its system T47D. In words: Antiestrogenic activity in human T47D cells assessed as compound concentration required to decrease 100 pM E2-induced cell proliferation to equivalent levels induced by 50 pM E2 after 96 hrs by alamar blue assay. It is filed as functional.
In a further assay the test system is Leishmania major. In words: Leishmanicidal activity against Leishmania major promastigotes at 100 ug/ml after 48 hrs by MTT assay. It is filed as functional, organism-based. A general note: Tetrazolium dyes change colour on reduction, which living cells bring about.
Assay [7] has as its system T47D. In words: Antiestrogenic activity in human T47D cells assessed as compound concentration required to decrease 100 pM E2-induced cell proliferation to equivalent levels induced by 10 pM E2 after 96 hrs by alamar blue assay. The assay is classed as functional.
Assay [8] relates to T47D. In words: Antiestrogenic activity in human T47D cells assessed as inhibition of E2-induced cell proliferation up to 10 uM after 96 hrs by alamar blue assay relative to control. It is filed as functional.
The subject of assay [9] is MCF7. In words: Antiestrogenic activity in human MCF7 cells assessed as compound concentration required to decrease 100 pM E2-induced cell proliferation to equivalent levels induced by 1 pM E2 after 96 hrs by alamar blue assay. It is filed as functional.
The subject of assay [10] is T47D. In words: Antiestrogenic activity in human T47D cells assessed as compound concentration required to decrease 100 pM E2-induced cell proliferation to equivalent levels induced by 1 pM E2 after 96 hrs by alamar blue assay. The assay is classed as functional.

With `COc1c(O)cc([C@@H]2OC[C@@H]3[C@H]2CO[C@H]3c2cc(O[C@@H]3O[C@H](CO)[C@@H](O)[C@H](O)[C@H]3O)c(OC)c(OC)c2OC)c(OC)c1OC`, the “inhibition (INH)” value in the assay on MCF7 [1] is given as more than 90%. The result in the assay on MCF7 [2], in the assay with T47D [3] and in the assay with Leishmania major was inactive. The Activity in the assay on MCF7 [4] was less than 0.01 µM; in the assay with MCF7 [5], less than 0.1 µM; with T47D [6], less than 0.01 µM.
With `COc1cc([C@@H]2OC[C@@H]3[C@H]2CO[C@H]3c2cc(O[C@@H]3O[C@H](CO)[C@@H](O)[C@H](O)[C@H]3O)c(OC)c(OC)c2OC)c(OC)c(OC)c1OC`, the outcome in the assay on MCF7 [2], in the assay with T47D [3] and in the assay with Leishmania major was inactive. The Activity in the assay on MCF7 [4] was less than 0.01 µM; in the assay with T47D [6] it was less than 0.01 µM; in the assay on T47D [7] it was 1 µM. The “inhibition (INH)” value with T47D [8] was more than 50%.
As to `COc1cc([C@H]2OC[C@H]3[C@@H]2CO[C@@H]3c2cc(OC)c(OC)c(OC)c2O[C@@H]2O[C@H](CO)[C@@H](O)[C@H](O)[C@H]2O)cc(OC)c1OC`, the figures for the “inhibition (INH)” value with MCF7 [1] and in the assay with T47D [8] were more than 50% and more than 90%, respectively. The result in the assay on MCF7 [2], in the assay on T47D [3] and in the assay on Leishmania major was inactive. For the same compound, the Activity with MCF7 [4] is less than 0.01 µM; with MCF7 [5] it was 9.8 µM; in the assay on T47D [6], less than 0.01 µM; in the assay with T47D [7], less than 0.01 µM.
As for `COc1cc([C@H]2OC[C@H]3[C@@H]2CO[C@@H]3c2cc(OC)c(OC)c(OC)c2O[C@@H]2O[C@H](CO)[C@@H](O)[C@H](O)[C@H]2O)c(O)c(OC)c1OC`, the outcome in the assay on MCF7 [2], with T47D [3] and with Leishmania major was inactive. Besides, the Activity in the assay on MCF7 [4] and in the assay on T47D [6] was less than 0.01 µM throughout.
For `COc1c(O)cc([C@H]2OC[C@H]3[C@@H]2CO[C@@H]3c2cc3c(c(OC)c2OC)OCO3)c(O[C@@H]2O[C@H](CO)[C@@H](O)[C@H](O)[C@H]2O)c1OC`, in the assay with MCF7 [1], the “inhibition (INH)” value is reported as more than 90%. For the same compound, the result with MCF7 [2], in the assay with T47D [3] and in the assay with Leishmania major was inactive. The Activity with MCF7 [4], with MCF7 [5] and in the assay with T47D [6] was less than 0.01 µM throughout.
With `COc1cc([C@H]2OC[C@H]3[C@@H]2CO[C@@H]3c2cc(OC)c3c(c2)OCO3)cc(O[C@@H]2O[C@H](CO)[C@@H](O)[C@H](O)[C@H]2O)c1OC`, the result in the assay on MCF7 [2], with T47D [3] and with Leishmania major was inactive. Also, the Activity with MCF7 [4], with T47D [6] and in the assay with T47D [7] was less than 0.01 µM throughout. Further, the “inhibition (INH)” value with T47D [8] is reported as more than 90%.
Regarding `COc1cc([C@H]2OC[C@H]3[C@@H]2CO[C@@H]3c2ccc3c(c2)OCO3)c(O[C@@H]2O[C@H](CO)[C@@H](O)[C@H](O)[C@H]2O)c(OC)c1OC`, the result with MCF7 [2], with T47D [3] and in the assay with Leishmania major was inactive. The Activity is less than 0.01 µM in the assay with MCF7 [4]; less than 0.01 µM with MCF7 [5]; 3.5 µM with MCF7 [9]; less than 0.01 µM in the assay on T47D [6]; less than 0.01 µM in the assay on T47D [7]. Further, the “inhibition (INH)” value with T47D [8] is listed as more than 90%.
Turning to `COc1cc([C@@H]2OC[C@H]3[C@@H]2CO[C@@H]3c2cc(OC)c(OC)c(OC)c2O[C@@H]2O[C@H](CO)[C@@H](O)[C@H](O)[C@H]2O)c(O)c(OC)c1OC`, in the assay with MCF7 [1], the “inhibition (INH)” value is recorded as more than 90%. Moreover, the result in the assay with MCF7 [2], in the assay with T47D [3] and in the assay with Leishmania major was inactive. Moreover, the Activity in the assay on MCF7 [4] is less than 0.01 µM; with MCF7 [5] it was less than 0.01 µM; with T47D [6], less than 0.1 µM.
Take `COc1c(O)cc([C@H]2OC[C@H]3[C@@H]2CO[C@@H]3c2ccc3c(c2)OCO3)c(O[C@@H]2O[C@H](CO)[C@@H](O)[C@H](O)[C@H]2O)c1OC`: the result with MCF7 [2], in the assay with T47D [3] and in the assay on Leishmania major was inactive. Also, the Activity with MCF7 [4] and in the assay on T47D [6] was less than 0.01 µM in each case.
With `COc1cc([C@H]2OC[C@H]3[C@@H]2CO[C@@H]3c2cc(O)c(OC)c(OC)c2O[C@@H]2O[C@H](CO)[C@@H](O)[C@H](O)[C@H]2O)cc2c1OCO2`, in the assay on MCF7 [1], the “inhibition (INH)” value is on record as more than 90%. In addition, the result with MCF7 [2], in the assay with T47D [3] and in the assay with Leishmania major was inactive. For the same compound, the results for the Activity in the assay on MCF7 [4], in the assay on MCF7 [5] and in the assay on T47D [6] were less than 0.01 µM, less than 0.1 µM and 10 µM, respectively.
For the compound `COc1cc([C@H]2OC[C@H]3[C@@H]2CO[C@H]3c2cc(OC)c(OC)c(OC)c2O[C@@H]2O[C@H](CO)[C@@H](O)[C@H](O)[C@H]2O)cc2c1OCO2`, the “inhibition (INH)” value with MCF7 [1] is reported as more than 50%. Also, the outcome in the assay on MCF7 [2], with T47D [3] and with Leishmania major was inactive. Moreover, the Activity is less than 0.01 µM in the assay with MCF7 [4], 0.6 µM in the assay with MCF7 [5] and 5.6 µM with T47D [6].
With `COc1cc([C@@H]2OC[C@@H]3[C@H]2CO[C@H]3c2cc(O)c(OC)c(OC)c2O[C@@H]2O[C@H](CO)[C@@H](O)[C@H](O)[C@H]2O)c(OC)c(OC)c1OC`, the result in the assay with MCF7 [2], in the assay with T47D [3] and in the assay on Leishmania major was inactive. Moreover, the Activity with MCF7 [4] and with T47D [6] was less than 0.01 µM each time.
For `COc1cc([C@H]2OC[C@H]3[C@@H]2CO[C@@H]3c2cc(OC)c(OC)c(OC)c2O[C@@H]2O[C@H](CO)[C@@H](O)[C@H](O)[C@H]2O)cc2c1OCO2`, the outcome in the assay on MCF7 [2], with T47D [3] and in the assay with Leishmania major was inactive. In addition, in the assay on MCF7 [4], the Activity is less than 0.01 µM.
Take `CC/C(=C(\c1ccccc1)c1ccc(OCCN(C)C)cc1)c1ccccc1` [TAMOXIFEN]: the Activity came to 0.1 µM in the assay on MCF7 [4]; 0.3 µM with MCF7 [5]; 4.5 µM in the assay on MCF7 [9]; 0.1 µM with T47D [6]; 0.9 µM in the assay with T47D [7]; 7 µM in the assay on T47D [10].
